In data set [1] the target is T1, FXR (Homo sapiens, UniProt Q96RI1).
T1 construct: expressed in transfected cells; host or cells: HEK293 (transient)
T1 sequence (Q96RI1 1-486): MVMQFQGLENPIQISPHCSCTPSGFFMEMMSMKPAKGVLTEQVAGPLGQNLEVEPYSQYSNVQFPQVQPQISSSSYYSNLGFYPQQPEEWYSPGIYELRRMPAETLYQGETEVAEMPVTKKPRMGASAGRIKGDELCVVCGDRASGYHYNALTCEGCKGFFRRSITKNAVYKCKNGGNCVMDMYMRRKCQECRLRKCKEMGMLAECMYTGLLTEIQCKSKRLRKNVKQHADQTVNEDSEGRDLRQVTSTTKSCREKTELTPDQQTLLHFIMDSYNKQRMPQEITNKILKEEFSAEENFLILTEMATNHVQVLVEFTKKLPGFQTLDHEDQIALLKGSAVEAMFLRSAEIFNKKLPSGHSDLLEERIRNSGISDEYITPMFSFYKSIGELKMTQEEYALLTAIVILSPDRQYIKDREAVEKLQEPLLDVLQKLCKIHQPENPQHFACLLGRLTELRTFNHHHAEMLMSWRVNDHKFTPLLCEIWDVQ
T1 sequence (P19793 1-462 partner): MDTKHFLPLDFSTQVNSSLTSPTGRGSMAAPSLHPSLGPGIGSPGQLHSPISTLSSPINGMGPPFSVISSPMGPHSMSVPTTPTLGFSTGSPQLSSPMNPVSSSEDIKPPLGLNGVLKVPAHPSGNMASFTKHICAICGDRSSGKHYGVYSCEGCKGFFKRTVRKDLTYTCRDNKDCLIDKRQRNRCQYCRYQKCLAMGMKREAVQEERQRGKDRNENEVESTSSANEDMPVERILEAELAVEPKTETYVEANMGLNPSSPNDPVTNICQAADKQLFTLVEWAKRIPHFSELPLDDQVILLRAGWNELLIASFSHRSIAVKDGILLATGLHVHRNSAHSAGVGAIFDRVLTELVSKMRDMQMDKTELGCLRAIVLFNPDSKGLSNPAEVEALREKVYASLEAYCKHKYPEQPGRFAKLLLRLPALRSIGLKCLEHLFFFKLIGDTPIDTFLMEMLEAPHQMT
Put plainly: FXR luciferase reporter assay, transient transfection with a synthetic FXR responsive reporter plasmid in HEK293 cells. It counts as cell-based. The method, then:
Effect of berberine derivatives and γ-aminobutyric acid derivative on FXR inhibition was initially assessed using transient transfections with a synthetic FXR responsive reporter plasmid. HEK 293 Cells were treated with vehicle alone or 100 μM CDCA with or without compounds, as indicated. Results are luciferase expression normalized using the β-gal internal control.
TGR5-reporting activity was evaluated by luciferase assay. Treatments were performed in quadruplicate and normalized with β-galactosidase. HEK293 cells were transfected with FXR and RXRα, and FXRE-containing luciferase construct. Cells were treated with 10 μM of indicated compounds; luciferase was measured and normalized with β-galactosidase.
To evaluate TGR5 activity of compounds, cells were transfected 100 ng pCRE-luc reporter along with pCMV-galactosidase (10 ng) as an internal control for normalization of transfection efficiency. Plasmids were complexed with […] of Fugene 6 reagent (Promega, Madison, Wis.) in OptiMEM (Invitrogen, Carlsbad, Calif.) and cells were transfected for 18 h. The following day, cells were treated with vehicle and appropriate ligand as indicated. Luciferase and β-galactosidase activities were assayed 6 h later using Luciferase Assay System (Promega) and Galacto-Star (Applied Biosystems, Foster City, Calif.) reagents, respectively, and a MLX luminometer (Dynex Technologies, Chantilly, Va.). To evaluate the FXR activity of compounds, HEK293 cells were transfected with 25 ng of farnesoid X receptor expression plasmid (pCMX-hFXR), 25 ng of retinoid X receptor expression plasmid (pCMXhRXR), 100 ng of reporter plasmid (pEcREx6-TK-Luc), and 10 ng of pCMV-b-galactosidase as an internal control in each well, using Fugene 6 reagent. Approximately 18 h after transfection, cells were incubated for 12 h with different concentrations of each.
A general note: Reporter assays use an easily measured gene product as a stand-in for the process of interest.

The target in data set [2] is T2, FXR (Homo sapiens, UniProt Q96RI1).
T2 construct: the Gal4 DBD was fused to the LBD of FXR in this assay
T2 sequence (Q96RI1 262-486 limits assumed): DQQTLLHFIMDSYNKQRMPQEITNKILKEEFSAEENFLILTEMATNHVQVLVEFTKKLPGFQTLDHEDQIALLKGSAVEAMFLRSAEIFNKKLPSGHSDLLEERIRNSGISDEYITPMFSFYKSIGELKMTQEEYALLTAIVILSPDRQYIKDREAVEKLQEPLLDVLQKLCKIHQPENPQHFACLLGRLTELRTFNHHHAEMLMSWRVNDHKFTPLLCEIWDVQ
Put plainly: GeneBLAzer cell-based FXR transactivation assay (FXR-UAS-bla HEK 293T cells). The method, then:
To investigate the cellular activities of the novel berberine derivatives, we used a GeneBLAzer FXR cell-based assay, which detects the levels of a β-lactamase reporter controlled by a promoter containing the binding site of the DNA binding domain (DBD) of the GAL4 transcription factor; the Gal4 DBD was fused to the LBD of FXR in this assay. In typical test for agonists, DMSO (vehicle and negative control), 10 μM GW4064 (positive control), and titrations of GW4064, LCA or the 24 newly synthesized novel berberien derivatives analogs were mixed with GeneBLAzer FXR-UAS-bla HEK 293T cells. Reporter assays were performed after a 16 h incubation. […] For the experiments to evaluate the antagonistic activity, titrations of compounds were tested in the presence of 400 nM GW4064. […]
FXR transactivation assay was performed using GeneBLAzer FXR-UAS-bla HEK 293T cells (Invitrogen) as previously described with minor modifications. […] Plates were then incubated in the dark for 90 min at room temperature before measuring the fluorescent emissions at 460 nm and 535 nm (using excitation at 400 nm) with an Envision plate reader with bottom read capacity. […] The % Activation was calculated using Eq. 2.
[formula] […] The % Inhibition was calculated using Eq. 3. […]

Three compounds from US10703761B2, “Bile acid receptor modulators and methods of use thereof” (City of Hope, priority 2016, dated 2020) can be followed below.

Entries after “also recorded” stand apart in the source; their conditions may differ.

`O=C(O)CCCN1C(=O)c2ccccc2C1=O` [DY419]: the “Inhibition of FXR activation by CDCA (FXR antagonism)” value on FXR [1] (CDCA 100 μM, compounds 10 μM) is “strongly inhibited FXR activation; also recorded: activated FXR receptor to exert FXR antagonistic biological function”. Besides, on FXR [1] (compound alone, compared with GW4064), the “FXR activity of compound alone (agonism)” value is recorded as “no effect on FXR activity”.

For orientation: melting point means the temperature, or range, at which the solid turns liquid. The compound `COc1ccc2cc3[n+](cc2c1NCCc1ccc(O)c(O)c1)CCc1cc2c(cc1-3)OCO2` [DY322, Berberine-Dopamine Hybrid] gave a melting point of 198.4 °C. In addition, the “FXR antagonist activity in cell-based FXR transactivation assay” value at FXR [2] is on record as “identified as FXR antagonists”.

`COc1ccc2cc3[n+](cc2c1NCc1cccc(B(O)O)c1)CCc1cc2c(cc1-3)OCO2` [DY323, Berberine-Phenylboronic Hybrid]: the melting point came to 228.7 °C. At FXR [2], the “FXR antagonist activity in cell-based FXR transactivation assay” value is on record as “identified as FXR antagonists”.
